Data: US7169817B2, “Bis-aromatic alkanols” (IRM LLC, priority 2002, dated 2007)

Columns and labels:
Assay in all cases: GTPγS binding assay using S1P receptor/HEK293 membrane preparations
Format in all cases: biochemical
Details in all cases: membranes of transiently transfected HEK293 cells
S1P1 = biological target: T1, S1P1 (Homo sapiens, UniProt P21453)
T1 construct: expressed in transfected cells; host or cells: HEK293 (transient, calcium phosphate); crude membranes
Excerpt: (§1) A. In vitro: Binding Affinity of Compounds of Formula I to Individual Human S1P Receptors may be Determined in the Following Assays:
(§2) Transient Transfection of Human S1P Receptors into HEK293 Cells
(§3) EDG receptors and Gi proteins are cloned, and equal amounts of 4 cDNAs for the EDG receptor, Gi-α, Gi-β and Gi-γ are mixed and used to transfect monolayers of HEK293 cells using the calcium phosphate precipitate method (M. Wigler et al., Cell. 1977;11;223 and D S. Im et al., Mol. Pharmacol. 2000;57;753). Briefly, a DNA mixture containing 25 μg of DNA and 0.25 M CaCl is added to HEPES-buffered 2 mM Na2HPO4. Subconfluent monolayers of HEK293 cells are poisoned with […] chloroquine, and the DNA precipitate is then applied to the cells. After 4 hours, the monolayers are washed with phosphate-buffered saline and re-fed media (90% 1:1 Dulbecco's modified essential media (DMEM):F-12+10% fetal bovine serum). The cells are harvested 48–72 hours after addition of the DNA by scraping in HME buffer (in mM: 20 HEPES, 5 MgCl2, 1 EDTA, pH 7.4) containing 10% sucrose on ice, and disrupted using a Dounce homogenizer. After centrifugation at 800×g, the supernatant is diluted with HME without sucrose and centrifuged at 100,000×g for 1 hour. The resulting pellet is rehomogenized and centrifuged a second hour at 100,000×g. This crude membrane pellet is resuspended in HME with sucrose, aliquoted, and snap-frozen by immersion in liquid nitrogen. The membranes are stored at […] Protein concentration is determined spectroscopically by the Bradford protein assay.
(§4) GTPγS Binding Assay Using S1P Receptor/HEK293 Membrane Preparations
(§5) GTPγS binding experiments are performed as described by D S. Im et al., Mol. Pharmacol. 2000; 57:753. Ligand-mediated GTPγS binding to G-proteins is measured in GTP binding buffer (in mM: 50 HEPES, 100 NaCl, 10 MgCl2, pH 7.5) using 25 μg of a membrane preparation from transiently transfected HEK293 cells. Ligand is added to membranes in the presence of 10 μM GDP and 0.1 nM [^35S]GTPγS (1200 Ci/mmol) and incubated at 30° C. for 30 min. Bound GTPγS is separated from unbound using the Brandel harvester (Gaithersburg, Md.) and counted with a liquid scintillation counter.

S1P2 = biological target: T2, S1P2 (Homo sapiens, UniProt O95136)
T2 construct: expressed in transfected cells; host or cells: HEK293 (transient, calcium phosphate); crude membranes
T2 sequence (O95136 whole entry): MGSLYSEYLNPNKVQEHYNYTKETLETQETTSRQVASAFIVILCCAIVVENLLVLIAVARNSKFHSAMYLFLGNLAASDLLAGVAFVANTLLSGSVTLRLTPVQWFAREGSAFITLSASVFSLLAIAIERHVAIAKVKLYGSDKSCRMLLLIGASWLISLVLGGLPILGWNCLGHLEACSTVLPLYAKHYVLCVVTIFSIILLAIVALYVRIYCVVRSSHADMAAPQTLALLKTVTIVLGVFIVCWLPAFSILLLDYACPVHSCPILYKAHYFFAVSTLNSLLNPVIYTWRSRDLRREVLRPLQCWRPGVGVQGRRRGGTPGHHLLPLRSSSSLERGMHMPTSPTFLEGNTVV
Excerpt: as §1, §2, §3, §4, §5

S1P3 = biological target: T3, S1P3 (Homo sapiens, UniProt Q99500)
T3 construct: expressed in transfected cells; host or cells: HEK293 (transient, calcium phosphate); crude membranes
T3 sequence (Q99500 whole entry): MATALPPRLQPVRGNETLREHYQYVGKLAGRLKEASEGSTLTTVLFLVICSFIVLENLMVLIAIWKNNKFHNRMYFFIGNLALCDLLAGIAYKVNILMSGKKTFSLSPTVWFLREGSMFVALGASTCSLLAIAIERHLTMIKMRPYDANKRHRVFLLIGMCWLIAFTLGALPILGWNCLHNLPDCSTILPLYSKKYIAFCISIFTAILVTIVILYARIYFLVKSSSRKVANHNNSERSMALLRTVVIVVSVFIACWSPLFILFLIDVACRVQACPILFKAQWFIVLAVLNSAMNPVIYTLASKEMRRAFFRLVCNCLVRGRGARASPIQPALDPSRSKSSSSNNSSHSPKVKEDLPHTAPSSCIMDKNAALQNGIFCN
Excerpt: as §1, §2, §3, §4, §5

S1P4 = biological target: T4, S1P4 (Homo sapiens, UniProt O95977)
T4 construct: expressed in transfected cells; host or cells: HEK293 (transient, calcium phosphate); crude membranes
T4 sequence (O95977 1-384): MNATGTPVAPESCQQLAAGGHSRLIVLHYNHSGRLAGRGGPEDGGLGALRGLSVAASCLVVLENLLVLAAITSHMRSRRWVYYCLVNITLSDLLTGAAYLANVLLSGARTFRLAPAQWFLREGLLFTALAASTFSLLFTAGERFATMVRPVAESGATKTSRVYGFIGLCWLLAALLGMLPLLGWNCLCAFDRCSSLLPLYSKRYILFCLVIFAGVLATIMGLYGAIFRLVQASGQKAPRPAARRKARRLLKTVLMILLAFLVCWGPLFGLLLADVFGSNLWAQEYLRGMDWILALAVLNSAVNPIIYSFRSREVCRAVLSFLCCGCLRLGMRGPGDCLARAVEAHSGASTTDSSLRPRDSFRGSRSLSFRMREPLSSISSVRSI
Excerpt: as §1, §2, §3, §4, §5

S1P5 = biological target: T5, S1P5 (Homo sapiens, UniProt Q9H228)
T5 construct: expressed in transfected cells; host or cells: HEK293 (transient, calcium phosphate); crude membranes
T5 sequence (Q9H228 whole entry): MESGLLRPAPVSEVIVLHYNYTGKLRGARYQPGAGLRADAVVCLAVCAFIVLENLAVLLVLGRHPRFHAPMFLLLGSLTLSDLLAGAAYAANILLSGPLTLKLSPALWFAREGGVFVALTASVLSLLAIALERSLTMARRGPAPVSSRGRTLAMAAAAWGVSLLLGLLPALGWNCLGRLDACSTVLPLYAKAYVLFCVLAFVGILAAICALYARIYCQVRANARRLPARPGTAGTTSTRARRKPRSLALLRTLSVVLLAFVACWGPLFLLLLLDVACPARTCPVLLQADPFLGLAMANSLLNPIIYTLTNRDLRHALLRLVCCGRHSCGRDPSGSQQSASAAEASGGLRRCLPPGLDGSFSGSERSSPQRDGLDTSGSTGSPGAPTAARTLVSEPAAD
Excerpt: as §1, §2, §3, §4, §5

T1 sequence (P21453 whole entry): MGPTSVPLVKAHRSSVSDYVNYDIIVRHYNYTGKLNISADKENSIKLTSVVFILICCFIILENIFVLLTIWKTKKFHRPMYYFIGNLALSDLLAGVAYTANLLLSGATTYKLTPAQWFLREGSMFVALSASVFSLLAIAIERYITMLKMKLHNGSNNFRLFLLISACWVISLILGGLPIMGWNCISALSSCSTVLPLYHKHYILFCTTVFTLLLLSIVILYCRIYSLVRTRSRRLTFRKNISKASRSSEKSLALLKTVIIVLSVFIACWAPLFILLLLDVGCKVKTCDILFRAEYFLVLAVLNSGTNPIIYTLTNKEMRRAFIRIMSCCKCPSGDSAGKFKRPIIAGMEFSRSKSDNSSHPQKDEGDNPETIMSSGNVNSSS

CCCCCc1ccc(-c2ccc(CCC(N)(CO)CO)cc2)cc1 [Example 36]
EC50 (S1P1): 0.33 nM
EC50 (S1P2): > 10000 nM
EC50 (S1P3): > 10000 nM
EC50 (S1P4): 1.2 nM
EC50 (S1P5): 1.1 nM

CCCc1cc(-c2ccc(-c3ccc(CCC(N)(CO)CO)cc3)cc2)no1 [Example 41]
EC50 (S1P1): 0.16 nM
EC50 (S1P2): > 10000 nM
EC50 (S1P3): 53.8 nM
EC50 (S1P4): > 10000 nM
EC50 (S1P5): 2.1 nM

NC(CO)(CO)CCc1ccc(-c2ccc(OCc3ccc(F)c(F)c3)cc2)cc1 [Example 63]
EC50 (S1P1): 0.07 nM
EC50 (S1P2): > 10000 nM
EC50 (S1P3): 1.9 nM
EC50 (S1P4): > 10000 nM
EC50 (S1P5): 0.1 nM
